Assay results from patent US10670605B2, “Cysteine reactive probes and uses thereof” (The Scripps Research Institute, priority 2015, dated 2020).

What was measured:
Experiment in all cases: Competitive isoTOP-ABPP in situ (fragment-treated cells)
Type in all cases: cell-based
[1] = molecular target: T1, cysteines in MDA-MB-231 and Ramos cells (Homo sapiens, UniProt Q9HA64)
T1 sequence (Q9HA64 1-309): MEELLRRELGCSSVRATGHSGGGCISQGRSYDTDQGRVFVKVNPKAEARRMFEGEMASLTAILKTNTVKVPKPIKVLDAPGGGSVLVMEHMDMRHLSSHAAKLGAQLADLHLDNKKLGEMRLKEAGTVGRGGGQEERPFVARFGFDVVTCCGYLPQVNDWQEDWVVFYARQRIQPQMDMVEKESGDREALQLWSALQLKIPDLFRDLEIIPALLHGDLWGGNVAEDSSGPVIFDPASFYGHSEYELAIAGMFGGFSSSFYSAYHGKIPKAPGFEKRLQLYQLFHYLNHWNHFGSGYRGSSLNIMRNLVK

[2] = molecular target: T2, cysteines in MDA-MB-231 and Ramos cells (Homo sapiens, UniProt Q99798); conditions: 200 μM, insitu, 231
T2 sequence (Q99798 28-780): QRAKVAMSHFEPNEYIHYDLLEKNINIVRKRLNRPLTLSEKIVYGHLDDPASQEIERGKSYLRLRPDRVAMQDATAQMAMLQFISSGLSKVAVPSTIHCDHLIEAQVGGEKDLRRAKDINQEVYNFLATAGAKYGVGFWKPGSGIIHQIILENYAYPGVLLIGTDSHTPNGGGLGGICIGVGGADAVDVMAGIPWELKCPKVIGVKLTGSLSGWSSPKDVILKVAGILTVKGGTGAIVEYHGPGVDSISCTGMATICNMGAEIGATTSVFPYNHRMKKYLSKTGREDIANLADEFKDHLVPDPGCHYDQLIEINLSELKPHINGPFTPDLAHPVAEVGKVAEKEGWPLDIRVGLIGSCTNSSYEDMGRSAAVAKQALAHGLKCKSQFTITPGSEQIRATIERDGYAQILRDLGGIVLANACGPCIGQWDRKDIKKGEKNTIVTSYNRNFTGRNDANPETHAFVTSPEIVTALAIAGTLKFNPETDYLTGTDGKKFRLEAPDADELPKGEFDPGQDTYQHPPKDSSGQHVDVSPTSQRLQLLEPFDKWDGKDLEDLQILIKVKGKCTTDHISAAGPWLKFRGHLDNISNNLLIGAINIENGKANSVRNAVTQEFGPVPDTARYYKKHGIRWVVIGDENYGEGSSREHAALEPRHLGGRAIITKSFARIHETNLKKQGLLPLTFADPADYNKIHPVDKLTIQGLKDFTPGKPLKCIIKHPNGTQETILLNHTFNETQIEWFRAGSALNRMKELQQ

[3] = molecular target: T3, cysteines in MDA-MB-231 and Ramos cells (Homo sapiens, UniProt Q8TD19); conditions: 200 μM, insitu
T3 sequence (Q8TD19 1-979): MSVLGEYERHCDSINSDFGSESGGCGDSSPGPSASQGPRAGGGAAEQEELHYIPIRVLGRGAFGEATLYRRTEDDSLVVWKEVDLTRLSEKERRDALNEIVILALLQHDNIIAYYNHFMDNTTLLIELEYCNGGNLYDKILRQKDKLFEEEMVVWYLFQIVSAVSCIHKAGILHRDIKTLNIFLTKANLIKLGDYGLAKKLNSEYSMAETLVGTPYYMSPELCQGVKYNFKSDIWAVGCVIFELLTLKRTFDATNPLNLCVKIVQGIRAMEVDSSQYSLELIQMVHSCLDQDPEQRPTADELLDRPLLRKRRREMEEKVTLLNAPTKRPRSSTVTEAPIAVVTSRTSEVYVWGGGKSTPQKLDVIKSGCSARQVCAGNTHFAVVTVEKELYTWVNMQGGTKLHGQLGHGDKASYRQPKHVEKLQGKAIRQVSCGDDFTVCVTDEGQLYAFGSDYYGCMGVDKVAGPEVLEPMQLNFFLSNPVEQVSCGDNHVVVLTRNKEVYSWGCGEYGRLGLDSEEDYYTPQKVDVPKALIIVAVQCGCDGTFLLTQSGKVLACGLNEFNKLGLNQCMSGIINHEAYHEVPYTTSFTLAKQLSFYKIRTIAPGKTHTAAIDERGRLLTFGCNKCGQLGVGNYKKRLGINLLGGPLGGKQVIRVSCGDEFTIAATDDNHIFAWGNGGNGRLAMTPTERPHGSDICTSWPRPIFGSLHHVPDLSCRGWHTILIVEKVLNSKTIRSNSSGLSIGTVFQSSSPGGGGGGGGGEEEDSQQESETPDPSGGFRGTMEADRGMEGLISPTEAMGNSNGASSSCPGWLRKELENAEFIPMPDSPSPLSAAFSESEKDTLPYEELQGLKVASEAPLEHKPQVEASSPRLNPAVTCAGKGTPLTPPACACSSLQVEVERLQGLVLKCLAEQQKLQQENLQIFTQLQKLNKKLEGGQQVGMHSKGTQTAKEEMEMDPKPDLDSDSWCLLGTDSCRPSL

COc1ccc(C2CC(c3cccs3)=NN2C(=O)CCl)cc1 (stereo not shown) [compound 4]
isoTOP-ABPP reactivity Q9HA64_C24 FN3KRP ([1]; 100 μM in situ 231): 20.0

O=C(CCl)N1CCN(S(=O)(=O)c2ccccc2F)CC1 [compound 10]
isoTOP-ABPP ratio, cysteine Q99798_C385 [2]: 0.7

Cc1ccc(C=C(C#N)C(=O)NCCN2CCOCC2)cc1 [compound 41]
isoTOP-ABPP ratio Q8TD19_C623 [3]; 231: 0.6 | isoTOP-ABPP ratio Q99798_C385 [2]: 0.1

COc1ccc2c(c1)CCCN2C(=O)CCl [compound 2]
isoTOP-ABPP reactivity Q9HA64_C24 FN3KRP ([1]; 200 μM, insitu, 231): 6.3

C=CC(=O)Nc1cc(F)c(N2CCN(C(=O)OC(C)(C)C)CC2)c(F)c1 [compound 38]
isoTOP-ABPP ratio Q9HA64_C24 ([1]; 200 μM, insitu, 231): 1.7

C=CC(=O)N(Cc1cccnc1)c1cc(C(F)(F)F)cc(C(F)(F)F)c1 [compound 31]
isoTOP-ABPP ratio Q8TD19_C623 [3]; 231: 0.7 | isoTOP-ABPP ratio Q8TD19_C623 ([3]; ramos): 1.4

O=C(CCl)NCCc1c[nH]c2ccccc12 [compound 13]
isoTOP-ABPP ratio, cysteine Q8TD19_C623 ([3]; ramos): 20.0

O=C(CCl)NC12CC3CC(CC(C3)C1)C2 [compound 21]
isoTOP-ABPP ratio, cysteine Q8TD19_C623 [3]; 231: 0.8 | isoTOP-ABPP ratio, cysteine Q99798_C385 [2]: 2.0 | isoTOP-ABPP ratio, cysteine Q9HA64_C24 ([1]; 200 μM, insitu, 231): 0.6

O=C(CCl)N1CCC(Cc2ccccc2)CC1 [compound 9]
isoTOP-ABPP reactivity Q9HA64_C24 FN3KRP ([1]; 200 μM, insitu, 231): 20.0
